Reference: ChEMBL document CHEMBL4385605, “Synthesis and Structure-Affinity Relationships of Spirocyclic Benzopyrans with Exocyclic Amino Moiety” (J Med Chem, 2019)
Activity calls are given as the source filed them. No cut-off for these calls is given here.

What was measured:
[1] = target: Mu-type opioid receptor (Cavia porcellus, UniProt P97266); test: Displacement of [3H]DAMGO from mu opioid receptor in guinea pig brain membranes after 120 mins by scintillation counting analysis; format: cell membranes
[2] = Selectivity ratio of Ki for displacement of [3H]DTG from sigma2 receptor in rat liver membranes to Ki for displacement of (+)-[3H]pentazocine from sigma 1 receptor in guinea pig brain cortex membranes; format: cell membranes
[3] = target: Kappa-type opioid receptor (Cavia porcellus, UniProt P41144); test: Displacement of [3H]U69,593 from kappa opioid receptor in guinea pig brain membrane after 120 mins by scintillation counting analysis; format: cell membranes
[4] = species: Cavia porcellus; test: Selectivity ratio of Ki for displacement of [3H](+)-pentazocine from sigma 1 receptor in guinea pig brain cortex membranes to Ki for displacement of [3H]DAMGO from mu opioid receptor in guinea pig brain membranes; format: cell membranes
[5] = target: Sigma intracellular receptor 2 (Homo sapiens, UniProt Q5BJF2); test: Displacement of [3H]-di-o-tolylguanidine from sigma2 receptor in human RT4 cell membranes at 1 uM after 120 mins in the presence of sigma1 receptor ligand (+)-pentazocine by scintillation counting method relative to control
[6] = target: Delta-type opioid receptor (Rattus norvegicus, UniProt P33533); test: Displacement of [3H]DPDPE from delta opioid receptor in rat membranes after 120 mins by scintillation counting analysis; format: cell membranes
[7] = species: Sus scrofa; test: Displacement of [3H]-(+)-MK-801 from PCP binding site of NMDA receptor in pig brain cortex membranes up to 1 uM after 120 mins by scintillation counting analysis; format: cell membranes
[8] = target: T1, Sigma intracellular receptor 2 (Rattus norvegicus, UniProt Q5U3Y7); test: Displacement of [3H]-di-o-tolylguanidine from sigma2 receptor in rat liver membranes incubated for 120 mins in the presence of sigma1 receptor ligand (+)-pentazocine by scintillation counting method; format: cell membranes
T1 sequence (Q5U3Y7 whole entry): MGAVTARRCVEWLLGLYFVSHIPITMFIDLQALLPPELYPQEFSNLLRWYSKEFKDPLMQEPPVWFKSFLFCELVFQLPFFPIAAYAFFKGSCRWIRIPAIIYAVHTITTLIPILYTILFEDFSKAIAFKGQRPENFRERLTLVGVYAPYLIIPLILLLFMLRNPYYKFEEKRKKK

[9] = target: Sigma non-opioid intracellular receptor 1 (Cavia porcellus, UniProt Q60492); test: Displacement of [3H](+)-pentazocine from sigma 1 receptor in guinea pig brain cortex membranes after 120 mins by scintillation counting analysis; format: cell membranes
[10] = target: Sigma intracellular receptor 2 (Rattus norvegicus) (UniProt Q5U3Y7); test: Displacement of [3H]-di-o-tolylguanidine from sigma2 receptor in rat liver membranes at 1 uM incubated for 120 mins in the presence of sigma1 receptor ligand (+)-pentazocine by scintillation counting method relative to control; format: cell membranes
[11] = target: T2, Alpha-1A adrenergic receptor (Homo sapiens) (UniProt P35348); test: Binding affinity to alpha 1a adrenergic receptor (unknown origin) at 1 uM relative to control
T2 sequence (whole entry): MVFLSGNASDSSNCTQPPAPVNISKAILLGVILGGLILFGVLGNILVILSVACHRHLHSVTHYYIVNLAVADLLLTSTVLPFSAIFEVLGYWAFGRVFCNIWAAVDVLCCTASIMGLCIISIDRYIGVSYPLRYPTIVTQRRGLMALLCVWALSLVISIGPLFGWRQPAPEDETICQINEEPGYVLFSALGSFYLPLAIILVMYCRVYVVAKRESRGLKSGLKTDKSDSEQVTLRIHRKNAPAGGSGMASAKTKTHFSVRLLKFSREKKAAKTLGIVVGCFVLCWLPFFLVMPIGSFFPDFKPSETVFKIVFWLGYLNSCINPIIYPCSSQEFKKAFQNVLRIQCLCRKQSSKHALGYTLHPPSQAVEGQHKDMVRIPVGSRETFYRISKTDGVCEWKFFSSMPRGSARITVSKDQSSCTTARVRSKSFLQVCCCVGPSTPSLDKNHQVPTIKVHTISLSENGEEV

[12] = tested on: HepG2; test: Cytotoxicity against human HepG2 cells at 1 to 100 uM incubated for 20 hrs under serum free condition by neutral red uptake assay; format: cell-based; details: hepg2, 20 h
[13] = target: Mu-type opioid receptor (Homo sapiens, UniProt P35372); test: Binding affinity to human mu opioid receptor by cell based assay
[14] = target: Cytochrome P450 2C19 (Homo sapiens, UniProt P33261); test: Inhibition of recombinant human CYP2C19 at 1 uM by fluorescence assay; format: ADME; details: recombinant enzyme
[15] = target: T3, Cytochrome P450 1A2 (Homo sapiens, UniProt P05177); test: Inhibition of recombinant human CYP1A2 at 1 uM by fluorescence assay; format: ADME; details: recombinant enzyme
T3 sequence (P05177 whole entry): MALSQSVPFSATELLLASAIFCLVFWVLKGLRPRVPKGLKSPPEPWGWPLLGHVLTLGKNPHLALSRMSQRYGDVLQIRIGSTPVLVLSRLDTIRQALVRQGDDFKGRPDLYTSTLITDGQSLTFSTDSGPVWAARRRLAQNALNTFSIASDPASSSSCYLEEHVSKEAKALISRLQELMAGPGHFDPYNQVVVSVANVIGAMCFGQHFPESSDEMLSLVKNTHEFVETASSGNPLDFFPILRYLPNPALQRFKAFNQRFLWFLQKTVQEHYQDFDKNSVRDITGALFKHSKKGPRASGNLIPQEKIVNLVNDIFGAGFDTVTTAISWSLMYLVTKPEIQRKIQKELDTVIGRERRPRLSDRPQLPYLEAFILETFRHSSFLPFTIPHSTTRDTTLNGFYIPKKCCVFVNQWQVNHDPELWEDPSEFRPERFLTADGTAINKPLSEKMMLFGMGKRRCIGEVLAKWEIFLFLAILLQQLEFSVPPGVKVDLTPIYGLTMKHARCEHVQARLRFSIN

[16] = Metabolic stability in human liver microsomes assessed as parent compound remaining at 1 uM in the presence of NADPH regenerating system after 60 mins by UPLC/MS analysis; format: ADME, Microsome; details: read-out: Stability
[17] = target: 5-hydroxytryptamine receptor 2B (Homo sapiens) (UniProt P41595); test: Binding affinity to 5-HT2BR (unknown origin) at 1 uM relative to control
[18] = target: T4, 5-hydroxytryptamine receptor 1A (Homo sapiens) (UniProt P08908); test: Binding affinity to 5-HT1AR (unknown origin) at 1 uM relative to control
T4 sequence (whole entry): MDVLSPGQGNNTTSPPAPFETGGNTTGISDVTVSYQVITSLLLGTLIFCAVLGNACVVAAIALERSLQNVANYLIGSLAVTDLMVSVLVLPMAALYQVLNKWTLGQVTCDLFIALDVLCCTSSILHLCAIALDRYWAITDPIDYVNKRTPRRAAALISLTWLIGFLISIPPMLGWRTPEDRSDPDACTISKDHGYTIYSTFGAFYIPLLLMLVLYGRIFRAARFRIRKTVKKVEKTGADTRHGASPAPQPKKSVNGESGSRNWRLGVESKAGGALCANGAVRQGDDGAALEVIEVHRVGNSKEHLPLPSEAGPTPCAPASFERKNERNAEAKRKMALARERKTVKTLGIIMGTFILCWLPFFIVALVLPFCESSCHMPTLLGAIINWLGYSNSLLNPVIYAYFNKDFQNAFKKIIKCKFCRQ

[19] = target: Sodium-dependent dopamine transporter (Homo sapiens) (UniProt Q01959); test: Binding affinity to dopamine transporter (unknown origin) at 1 uM
[20] = target: Sigma non-opioid intracellular receptor 1 (Homo sapiens, UniProt Q99720); test: Displacement of [3H](+)-pentazocine from sigma 1 receptor in human RPMI8226 cell membranes incubated for 2 hrs under shaking by scintillation counting analysis
[21] = tested on: HepG2; test: Cytotoxicity against human HepG2 cells at 1 to 100 uM incubated for 20 hrs under serum free condition by MTT assay; format: cell-based; details: hepg2, 20 h
[22] = target: Cytochrome P450 3A4 (Homo sapiens, UniProt P08684); test: Inhibition of recombinant human CYP3A4 at 1 uM by fluorescence assay; format: ADME; details: recombinant enzyme
[23] = target: Cytochrome P450 2C9 (Homo sapiens, UniProt P11712); test: Inhibition of recombinant human CYP2C9 at 1 uM by fluorescence assay; format: ADME; details: recombinant enzyme
[24] = target: Sodium-dependent noradrenaline transporter (Homo sapiens) (UniProt P23975); test: Binding affinity to noradrenaline transporter (unknown origin) at 1 uM
[25] = target: T5, Alpha-2A adrenergic receptor (Homo sapiens) (UniProt P08913); test: Binding affinity to alpha 2a adrenergic receptor (unknown origin) at 1 uM relative to control
T5 sequence (whole entry): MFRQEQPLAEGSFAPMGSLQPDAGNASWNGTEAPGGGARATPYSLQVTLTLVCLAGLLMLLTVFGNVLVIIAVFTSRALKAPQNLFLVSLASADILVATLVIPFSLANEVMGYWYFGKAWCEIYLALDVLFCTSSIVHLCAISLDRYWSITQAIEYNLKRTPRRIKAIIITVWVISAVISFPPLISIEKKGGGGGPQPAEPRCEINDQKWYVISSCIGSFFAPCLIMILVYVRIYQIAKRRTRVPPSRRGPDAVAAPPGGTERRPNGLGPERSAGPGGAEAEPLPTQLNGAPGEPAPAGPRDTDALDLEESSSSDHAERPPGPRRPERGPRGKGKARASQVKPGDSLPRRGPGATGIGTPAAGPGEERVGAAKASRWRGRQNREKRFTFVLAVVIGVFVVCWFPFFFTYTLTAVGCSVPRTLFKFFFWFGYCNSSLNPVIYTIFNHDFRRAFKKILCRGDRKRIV

[26] = target: Sodium-dependent serotonin transporter (Homo sapiens) (UniProt P31645); test: Binding affinity to serotonin transporter (unknown origin) at 1 uM
[27] = target: CYP2D6 (Homo sapiens, UniProt P10635); test: Inhibition of recombinant human CYP2D6 at 1 uM by fluorescence assay relative to control; format: ADME
[28] = target: Delta-type opioid receptor (Rattus norvegicus) (UniProt P33533); test: Displacement of [3H]DPDPE from delta opioid receptor in rat membrane at 1 uM after 120 mins by scintillation counting analysis relative to control; format: cell membranes
[29] = target: Mu-type opioid receptor (Cavia porcellus) (UniProt P97266); test: Displacement of [3H]DAMGO from mu opioid receptor in guinea pig brain membranes at 1 uM after 120 mins by scintillation counting analysis relative to control; format: cell membranes
Sequence of Mu-type opioid receptor (Cavia porcellus) (P97266 whole entry): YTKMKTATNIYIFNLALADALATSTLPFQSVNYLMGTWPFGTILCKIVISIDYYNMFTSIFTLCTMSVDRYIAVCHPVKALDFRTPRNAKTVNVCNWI

Sequence of 5-hydroxytryptamine receptor 2B (Homo sapiens) (P41595 whole entry): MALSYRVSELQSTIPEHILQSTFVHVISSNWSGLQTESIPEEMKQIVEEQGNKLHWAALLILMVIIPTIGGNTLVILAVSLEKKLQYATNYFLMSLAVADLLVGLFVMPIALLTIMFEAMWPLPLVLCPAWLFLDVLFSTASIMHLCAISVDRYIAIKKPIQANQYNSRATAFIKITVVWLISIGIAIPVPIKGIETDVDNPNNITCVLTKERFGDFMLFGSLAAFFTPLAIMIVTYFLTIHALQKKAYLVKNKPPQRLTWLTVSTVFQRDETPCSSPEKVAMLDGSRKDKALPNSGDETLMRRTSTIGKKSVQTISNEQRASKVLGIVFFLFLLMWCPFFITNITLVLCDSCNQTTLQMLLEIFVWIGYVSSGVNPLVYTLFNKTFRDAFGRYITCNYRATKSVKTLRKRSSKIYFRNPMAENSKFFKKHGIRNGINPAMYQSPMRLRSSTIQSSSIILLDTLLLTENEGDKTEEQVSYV
Sequence of Cytochrome P450 3A4 (P08684 whole entry): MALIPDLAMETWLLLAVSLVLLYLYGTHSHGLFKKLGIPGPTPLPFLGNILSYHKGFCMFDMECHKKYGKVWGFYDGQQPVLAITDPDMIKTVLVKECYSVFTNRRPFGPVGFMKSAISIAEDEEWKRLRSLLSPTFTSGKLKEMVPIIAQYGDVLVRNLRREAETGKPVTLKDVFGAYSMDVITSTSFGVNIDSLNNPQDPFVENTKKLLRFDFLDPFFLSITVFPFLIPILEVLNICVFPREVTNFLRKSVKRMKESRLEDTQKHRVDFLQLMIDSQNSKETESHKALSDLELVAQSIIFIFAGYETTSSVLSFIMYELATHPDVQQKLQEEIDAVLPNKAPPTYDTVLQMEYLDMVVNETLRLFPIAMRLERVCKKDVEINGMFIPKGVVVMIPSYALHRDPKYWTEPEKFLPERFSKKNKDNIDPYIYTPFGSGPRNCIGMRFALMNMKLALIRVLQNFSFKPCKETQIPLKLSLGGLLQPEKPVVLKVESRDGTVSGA
Sequence of Sodium-dependent serotonin transporter (Homo sapiens) (P31645 whole entry, looked up): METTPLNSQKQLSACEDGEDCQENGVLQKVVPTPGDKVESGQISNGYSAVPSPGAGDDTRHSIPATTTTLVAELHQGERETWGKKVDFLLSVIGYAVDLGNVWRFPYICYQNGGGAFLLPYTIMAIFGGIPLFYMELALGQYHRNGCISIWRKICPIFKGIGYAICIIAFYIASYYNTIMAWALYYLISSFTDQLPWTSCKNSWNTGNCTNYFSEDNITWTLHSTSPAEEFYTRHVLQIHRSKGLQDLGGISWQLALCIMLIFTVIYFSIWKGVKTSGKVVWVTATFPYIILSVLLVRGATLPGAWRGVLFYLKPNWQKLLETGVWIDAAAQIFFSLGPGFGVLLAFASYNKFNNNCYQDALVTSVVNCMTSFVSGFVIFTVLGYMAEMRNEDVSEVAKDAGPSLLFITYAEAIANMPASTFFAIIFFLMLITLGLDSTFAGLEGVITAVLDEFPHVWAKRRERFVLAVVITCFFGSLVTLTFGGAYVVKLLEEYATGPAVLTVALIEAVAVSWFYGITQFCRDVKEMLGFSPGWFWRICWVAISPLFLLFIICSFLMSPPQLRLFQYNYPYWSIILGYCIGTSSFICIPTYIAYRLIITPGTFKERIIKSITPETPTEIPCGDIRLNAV
Sequence of Kappa-type opioid receptor (P41144 whole entry): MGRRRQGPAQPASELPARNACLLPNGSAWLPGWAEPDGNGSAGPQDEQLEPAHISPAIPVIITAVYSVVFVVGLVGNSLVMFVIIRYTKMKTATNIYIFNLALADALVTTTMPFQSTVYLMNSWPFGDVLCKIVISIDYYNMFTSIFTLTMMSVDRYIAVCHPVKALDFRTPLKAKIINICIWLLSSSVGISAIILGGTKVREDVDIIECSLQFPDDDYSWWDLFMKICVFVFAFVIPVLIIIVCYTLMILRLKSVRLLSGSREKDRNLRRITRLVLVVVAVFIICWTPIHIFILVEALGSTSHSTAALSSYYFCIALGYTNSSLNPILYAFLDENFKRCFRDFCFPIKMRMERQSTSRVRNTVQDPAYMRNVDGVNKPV
Sequence of Cytochrome P450 2C19 (P33261 whole entry): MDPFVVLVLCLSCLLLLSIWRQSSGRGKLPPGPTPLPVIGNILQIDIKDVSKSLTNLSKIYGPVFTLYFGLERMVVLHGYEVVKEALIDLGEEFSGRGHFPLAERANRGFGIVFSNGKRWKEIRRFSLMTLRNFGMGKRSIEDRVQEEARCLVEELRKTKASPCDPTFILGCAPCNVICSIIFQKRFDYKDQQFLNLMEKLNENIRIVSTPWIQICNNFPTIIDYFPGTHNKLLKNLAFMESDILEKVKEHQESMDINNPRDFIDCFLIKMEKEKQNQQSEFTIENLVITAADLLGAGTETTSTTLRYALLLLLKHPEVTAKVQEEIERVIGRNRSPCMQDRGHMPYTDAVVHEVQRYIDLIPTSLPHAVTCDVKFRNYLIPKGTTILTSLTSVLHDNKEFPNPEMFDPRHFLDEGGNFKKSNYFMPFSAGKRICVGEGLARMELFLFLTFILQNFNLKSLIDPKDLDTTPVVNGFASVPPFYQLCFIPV
Sequence of Sigma non-opioid intracellular receptor 1 (Homo sapiens, UniProt Q99720) (Q99720 whole entry): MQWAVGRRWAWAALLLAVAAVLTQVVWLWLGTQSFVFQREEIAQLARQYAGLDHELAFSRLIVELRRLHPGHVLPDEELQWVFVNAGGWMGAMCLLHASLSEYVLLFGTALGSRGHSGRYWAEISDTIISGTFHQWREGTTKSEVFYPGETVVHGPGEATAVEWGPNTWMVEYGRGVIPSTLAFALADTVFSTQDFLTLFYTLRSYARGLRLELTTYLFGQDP
Sequence of Sodium-dependent noradrenaline transporter (Homo sapiens) (P23975 whole entry): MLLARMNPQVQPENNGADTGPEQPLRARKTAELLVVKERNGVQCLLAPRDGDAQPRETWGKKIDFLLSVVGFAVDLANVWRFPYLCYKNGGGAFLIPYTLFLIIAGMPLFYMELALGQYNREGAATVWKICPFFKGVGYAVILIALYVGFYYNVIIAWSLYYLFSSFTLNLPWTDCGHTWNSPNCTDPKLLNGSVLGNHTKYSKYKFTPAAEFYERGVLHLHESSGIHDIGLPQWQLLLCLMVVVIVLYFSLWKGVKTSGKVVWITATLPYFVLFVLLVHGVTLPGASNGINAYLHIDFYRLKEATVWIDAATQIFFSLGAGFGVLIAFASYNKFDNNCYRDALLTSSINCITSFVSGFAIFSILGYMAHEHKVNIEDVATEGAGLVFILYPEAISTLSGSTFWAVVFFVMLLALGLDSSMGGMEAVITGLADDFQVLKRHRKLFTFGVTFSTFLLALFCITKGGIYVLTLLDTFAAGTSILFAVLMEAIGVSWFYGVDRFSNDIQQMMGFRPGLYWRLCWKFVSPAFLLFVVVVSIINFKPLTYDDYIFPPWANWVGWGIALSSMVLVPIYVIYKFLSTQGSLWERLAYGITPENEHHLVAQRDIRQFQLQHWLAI
Sequence of Sodium-dependent dopamine transporter (Homo sapiens) (Q01959 whole entry): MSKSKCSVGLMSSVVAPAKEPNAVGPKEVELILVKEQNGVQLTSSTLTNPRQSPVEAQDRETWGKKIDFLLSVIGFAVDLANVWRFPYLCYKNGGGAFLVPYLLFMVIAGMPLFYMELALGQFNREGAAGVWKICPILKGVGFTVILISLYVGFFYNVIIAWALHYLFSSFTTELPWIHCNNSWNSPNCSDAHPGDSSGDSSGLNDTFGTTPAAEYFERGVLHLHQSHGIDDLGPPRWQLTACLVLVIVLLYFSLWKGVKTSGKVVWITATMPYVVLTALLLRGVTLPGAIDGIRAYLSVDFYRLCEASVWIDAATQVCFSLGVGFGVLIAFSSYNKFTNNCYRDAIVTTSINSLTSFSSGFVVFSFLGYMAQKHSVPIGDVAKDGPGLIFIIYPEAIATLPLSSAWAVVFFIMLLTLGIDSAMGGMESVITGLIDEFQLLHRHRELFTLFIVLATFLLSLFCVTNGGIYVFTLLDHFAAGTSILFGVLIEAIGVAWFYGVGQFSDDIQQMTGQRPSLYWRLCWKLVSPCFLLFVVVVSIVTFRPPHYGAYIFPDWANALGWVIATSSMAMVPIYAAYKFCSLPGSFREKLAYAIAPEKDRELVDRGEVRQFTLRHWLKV
Sequence of Sigma non-opioid intracellular receptor 1 (Cavia porcellus, UniProt Q60492) (Q60492 whole entry): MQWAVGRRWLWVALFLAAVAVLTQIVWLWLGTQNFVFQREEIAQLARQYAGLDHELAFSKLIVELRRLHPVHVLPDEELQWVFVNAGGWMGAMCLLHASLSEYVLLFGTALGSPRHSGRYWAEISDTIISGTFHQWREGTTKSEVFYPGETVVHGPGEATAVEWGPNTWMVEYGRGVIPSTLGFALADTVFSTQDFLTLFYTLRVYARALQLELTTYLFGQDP
Sequence of Delta-type opioid receptor (P33533 whole entry): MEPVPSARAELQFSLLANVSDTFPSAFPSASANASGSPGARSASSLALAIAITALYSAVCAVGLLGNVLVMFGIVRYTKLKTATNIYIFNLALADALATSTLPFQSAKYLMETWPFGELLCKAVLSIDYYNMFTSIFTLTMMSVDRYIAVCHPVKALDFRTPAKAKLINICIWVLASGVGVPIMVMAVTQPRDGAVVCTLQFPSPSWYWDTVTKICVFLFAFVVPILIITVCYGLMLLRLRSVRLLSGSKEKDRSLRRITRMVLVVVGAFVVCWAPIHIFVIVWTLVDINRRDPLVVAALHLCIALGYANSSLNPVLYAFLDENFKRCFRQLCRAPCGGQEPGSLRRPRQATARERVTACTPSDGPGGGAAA
Sequence of Mu-type opioid receptor (Cavia porcellus, UniProt P97266) (P97266 whole entry): as the sequence (P97266 whole entry) above
Sequence of Sigma intracellular receptor 2 (Homo sapiens, UniProt Q5BJF2) (Q5BJF2 whole entry): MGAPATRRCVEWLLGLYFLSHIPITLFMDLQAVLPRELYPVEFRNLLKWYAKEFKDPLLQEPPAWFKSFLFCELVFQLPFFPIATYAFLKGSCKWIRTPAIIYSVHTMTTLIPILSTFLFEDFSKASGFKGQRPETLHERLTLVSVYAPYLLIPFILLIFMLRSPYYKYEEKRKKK

| Structure (SMILES) | Ki [1] | Ratio Ki [2] | Ki [3] | Ki [6] | Activity [7] | Ki [8] | Ki [9] | Activity [11] | Activity [12] | inhibition (INH) [14] | inhibition (INH) [15] | remaining at 1 h, 1 µM [16] | Activity [17] | Activity [18] | Activity [19] | Ki [20] | Activity [21] | inhibition (INH) [22] | inhibition (INH) [23] | Activity [24] | also measured |
| --- | --- | --- | --- | --- | --- | --- | --- | --- | --- | --- | --- | --- | --- | --- | --- | --- | --- | --- | --- | --- | --- |
| COC1Cc2ccccc2[C@]2(CC[C@@H](NCc3ccccc3)CC2)O1 (some centres undefined) | 38 nM | 5 to 10 | 204 nM | 49 nM | inactive | 2000 nM |  |  |  |  |  |  |  |  |  |  |  |  |  |  | Ratio Ki [4]: 14; inhibition [5]: 40% |
| c1ccc(CN[C@H]2CC[C@@]3(CC2)OCCc2ccccc23)cc1 | 31 nM | 5 to 10 | 85 nM | 14 nM |  |  | 256 nM |  |  |  |  |  |  |  |  |  |  |  |  |  | Ratio Ki [4]: 8.5; inhibition [10]: 13% |
| COC1Cc2ccccc2[C@]2(CC[C@@H](N(C)Cc3ccccc3)CC2)O1 (some centres undefined) | 41 nM | 5 to 10 | 250 nM | 371 nM | inactive | 1440 nM |  | inactive | Non-Toxic | Not Active | Not Active | > 50% | inactive | inactive | inactive | 40 nM | Non-Toxic | Not Active | Not Active | inactive | Ki [13]: 18 nM; Activity [25]: inactive; Activity [26]: inactive; inhibition at 1 µM [27]: > 90% |
| COC1O[C@]2(CC[C@H](NCc3ccccc3)CC2)c2ccccc21 (some centres undefined) | 115 nM | 5 to 10 | 413 nM |  |  |  | 262 nM |  |  |  |  |  |  |  |  |  |  |  |  |  | inhibition [28]: 30%; inhibition [10]: 25% |
| COC1Cc2ccccc2[C@]2(CC[C@H](N(C)Cc3ccccc3)CC2)O1 (some centres undefined) |  | 5 to 10 | 2300 nM | 1300 nM | inactive | 329 nM |  | inactive | Non-Toxic | Not Active | Not Active | > 50% | inactive | inactive | inactive | 39 nM | Non-Toxic | Not Active | Not Active | inactive | inhibition [29]: 12%; Activity [25]: inactive; Activity [26]: inactive; inhibition at 1 µM [27]: > 90% |
| COC1Cc2ccccc2[C@]2(CC[C@@H](N(C)CC3CCCCC3)CC2)O1 (some centres undefined) | 299 nM | 50 | 980 nM | 150 nM | inactive | 154 nM | 3.1 nM | inactive | Non-Toxic | Not Active | Not Active | > 50% | inactive | inactive | inactive | 6.9 nM | Non-Toxic | Not Active | Not Active | inactive | Activity [25]: inactive; Activity [26]: inactive; inhibition at 1 µM [27]: > 90% |
